Results as given in US20080194646A1, “Methods For Avoiding Edema in the Treatment of Metabolic, Inflammatory, and Cardiovascular Disorders” (priority 2005, published 2008).
Like-named read-outs stand apart in the source and are kept apart here.

Experiments:
cytochrome P450 2C9 = cytochrome P450 2C9 (Homo sapiens, UniProt P11712); conditions: comparison of enantiomers and racemate, cited from earlier work
rats = assay: separate animal studies, heart weight and fluid accumulation (rats); type: in vivo; conditions: therapeutically relevant doses, data not shown
monkeys = assay: separate animal studies, heart weight and fluid accumulation (monkeys); type: in vivo; conditions: therapeutically relevant doses, data not shown
[1] = system: type 2 diabetics with inadequate control on insulin; assay: two randomized, double-blind, placebo-controlled studies on type 2 diabetics with inadequate control on insulin; type: in vivo, human
Text: Example 9 presents the results of two randomized, double-blind, placebo-controlled, multi-centre studies on type 2 diabetics with inadequate control on insulin. […] Both studies were about 4 months long, with a stabilization/run in period for 2 to 4 weeks and a 3 month treatment period. Endpoints included fasting plasma glucose (FPG), HbA1c, weight, and the incidence of edema.

PPARγ = target: T1, PPARγ (Homo sapiens, UniProt P37231); assay: PPARγ partial agonism (Example 8, FIG. 6); type: cell-based
T1 sequence (P37231 1-505): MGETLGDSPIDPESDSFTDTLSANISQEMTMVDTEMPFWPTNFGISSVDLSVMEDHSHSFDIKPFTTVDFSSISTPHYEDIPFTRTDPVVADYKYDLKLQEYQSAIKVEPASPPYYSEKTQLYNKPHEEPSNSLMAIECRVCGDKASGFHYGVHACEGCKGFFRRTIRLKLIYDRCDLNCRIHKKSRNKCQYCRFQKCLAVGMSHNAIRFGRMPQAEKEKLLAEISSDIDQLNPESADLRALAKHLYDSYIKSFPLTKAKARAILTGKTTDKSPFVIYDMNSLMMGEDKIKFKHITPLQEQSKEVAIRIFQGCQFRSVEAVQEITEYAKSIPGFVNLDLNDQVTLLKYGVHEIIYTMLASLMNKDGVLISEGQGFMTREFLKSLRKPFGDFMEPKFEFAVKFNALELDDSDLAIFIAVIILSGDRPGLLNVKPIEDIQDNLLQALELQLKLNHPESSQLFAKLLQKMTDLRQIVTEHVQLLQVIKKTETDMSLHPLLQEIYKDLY

[2] = system: human subjects also receiving glyburide; assay: 14 days of treatment in human subjects also receiving glyburide; type: in vivo
Text: The data for pioglitazone (Actos) is taken from Goldberg R B et al., Diabetes Care 28(7):1547-54 (2005), which is incorporated herein by reference.

C57BL/6j ob/ob Mice [3] = assay: glucose lowering activity of halofenate analogs in ob/ob mice (Example 14); type: in vivo; conditions: 125 mg/kg oral gavage once a day for 1-3 days; Student unpaired t-test
Experimental: Male, 8-9 weeks old, C57BL/6J ob/ob mice were purchased from The Jackson Laboratory (Bar Harbor, Me., USA). Animals were housed (4-5 mice/cage) under standard laboratory conditions at 22±3° C. temperature and 50±20% relative humidity, and were maintained on a diet of Purina rodent chow and water ad libitum. Prior to treatment, blood was collected from the tail vein of each animal. Mice that had non-fasting plasma glucose levels between 250 and 500 mg/dl were used. Each treatment group consisted of 8-10 mice that were distributed so that the mean glucose levels were equivalent in each group at the start of the study. Mice were dosed orally by gavage once a day for 1-3 days with either vehicle, (−) halofenic acid, (+) analog 14, 29, 33, 34, 35, 36, 37, or 38 at 125 mg/kg or (−) analog 29, 36, 37 or 38 at 150 mg/kg. Compounds were delivered in a liquid formulation containing 5% (v/v) dimethyl sulfoxide (DMSO), 1% (v/v) tween 80 and 0.9% (w/v) methylcellulose. The gavage volume was 10 ml/kg. Blood samples were taken at 6 hours after the each dose and analyzed for plasma glucose. Food intake and body weight were measured daily. Plasma glucose concentrations were determined colorimetrically using glucose oxidase method (Sigma Chemical Co, St. Louis, Mo., USA). Significant difference between groups (comparing drug-treated to vehicle-treated) was evaluated using the Student unpaired t-test.

C57BL/6j ob/ob Mice [4] = assay: anti-diabetic activity in C57BL/6j ob/ob mice (Example 13); type: in vivo; conditions: oral gavage once a day for 1-4 days; for Potency: glucose lowering, 5 to 125 mg/kg, plasma glucose 6 hours after each dose
Experimental: The anti-diabetic activities of the compounds were evaluated in the C57BL/6j ob/ob Mice model.
Male, 7-9 weeks old, C57BL/6J ob/ob mice were purchased from The Jackson Laboratory (Bar Harbor, Me., USA). Animals were housed (4-5 mice/cage) under standard laboratory conditions at 22±3° C. temperature and 50±20% relative humidity, and were maintained on a diet of Purina rodent chow and water ad libitum. Prior to treatment, blood was collected from the tail vein of each animal. Mice that had non-fasting plasma glucose levels between 250 and 500 mg/dl were used. Each treatment group consisted of 8-10 mice that were distributed so that the mean glucose levels were equivalent in each group at the start of the study. Mice were dosed orally by gavage once a day for 1-4 days with vehicle and one or more dose of test compound at a dose ranging from 5 to 125 mg/kg. Compounds were delivered in a liquid formulation containing 5% (v/v) dimethyl sulfoxide (DMSO), 1% (v/v) Tween 80® and 0.9% (w/v) methylcellulose. The gavage volume was 10 ml/kg. Blood samples were taken at 6 hours after the each dose and analyzed for plasma glucose. Food intake and body weight were measured daily. Plasma glucose concentrations were determined colorimetrically using a commercial glucose oxidase method (Sigma Chemical Co, St. Louis, Mo., USA). Significant difference between groups (comparing drug-treated to vehicle-treated) was evaluated using the Student unpaired t-test.
The following table summarizes the anti-diabetic effects of selected compounds of the present invention and provides their relative potency. […] For example, a compound at 25 mg/kg that lowered the animal glucose level from 400 mg/dL (vehicle group value) to 250 mg/dL, is assigned the potency of +++.

Chain of cytochrome P450 2C9 (P11712 whole entry): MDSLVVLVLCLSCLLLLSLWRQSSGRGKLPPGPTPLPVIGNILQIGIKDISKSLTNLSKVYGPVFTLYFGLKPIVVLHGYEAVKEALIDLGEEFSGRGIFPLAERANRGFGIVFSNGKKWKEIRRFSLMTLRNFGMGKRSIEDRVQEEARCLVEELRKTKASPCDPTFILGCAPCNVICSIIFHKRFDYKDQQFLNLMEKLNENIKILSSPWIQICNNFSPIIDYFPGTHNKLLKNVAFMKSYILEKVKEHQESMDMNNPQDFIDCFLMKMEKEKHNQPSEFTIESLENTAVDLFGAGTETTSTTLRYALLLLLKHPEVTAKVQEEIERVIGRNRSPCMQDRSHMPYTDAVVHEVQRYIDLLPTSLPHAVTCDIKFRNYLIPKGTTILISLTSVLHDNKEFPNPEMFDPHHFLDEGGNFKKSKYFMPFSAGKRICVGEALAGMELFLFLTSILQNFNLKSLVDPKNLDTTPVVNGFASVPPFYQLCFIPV

Compound: O=C(O)C(Oc1cccc(C(F)(F)F)c1)c1ccc(Cl)cc1 (racemic) [racemic halofenic acid, 4-Chlorophenyl-(3-trifluoromethylphenoxy)-acetic Acid]
- inhibition of cytochrome P450 2C9 (cytochrome P450 2C9): found to inhibit cytochrome P450 2C9

Compound: O=C(O)C(Oc1cccc(C(F)(F)F)c1)c1ccc(Cl)cc1 (single isomer, unassigned; (+)) [(+) enantiomer of halofenic acid, (+) 4-chlorophenyl-(3-trifluoromethylphenoxy)-acetic acid]
- inhibition of cytochrome P450 2C9 (cytochrome P450 2C9): quite potent

Compound: CC(=O)NCCOC(=O)C(Oc1cccc(C(F)(F)F)c1)c1ccc(Cl)cc1 (single isomer, unassigned; (-)) [(−) halofenate, (−) 2-acetamidoethyl 4-chlorophenyl-(3-trifluoromethylphenoxy)acetate]
- heart weight or fluid accumulation (rats): did not cause increases at therapeutically relevant doses in heart weight or fluid accumulation
- heart weight or fluid accumulation (monkeys): did not cause increases at therapeutically relevant doses in heart weight or fluid accumulation
- adverse effects on selected parameters: upper GI tract, liver, blood, kidney ([1]; additional analyses, data not shown): not associated with an excess of adverse effects
- serum triglycerides ([1]; additional results, data not shown): lowered serum triglycerides substantially
- incidence of edema formation compared to combined placebo groups ([1]; both studies, dose range 200- to 600 mg (FIG. 17)): did not increase the incidence of edema formation
- Discontinued due to AE ([1]; first study, 200 mg group): 3 (4.1%)
- Discontinued due to AE ([1]; first study, 400 mg group): 3 (4.3%)
- plasma glucose levels as judged by HbA1c compared to placebo ([1]; first study, 200- and 400 mg (FIG. 8)): lowered plasma glucose levels as judged by HbA1c levels
- edema formation compared to placebo ([1]; first study, 200- and 400 mg (FIG. 9)): prevented edema formation
- weight gain compared to placebo ([1]; first study, 200- and 400 mg (FIG. 10)): did not induce weight gain
- fasting plasma glucose levels compared to placebo ([1]; first study, 200- and 400 mg, 3 month treatment (FIG. 7)): lowered fasting plasma glucose levels
- plasma glucose levels as judged by HbA1c compared to placebo ([1]; first study, 200- and 400 mg, sites 60 and 70 removed (FIG. 15)): lowered plasma glucose levels as judged by HbA1c levels
- fasting plasma glucose levels compared to placebo ([1]; first study, 200- and 400 mg, sites 60 and 70 removed (FIG. 16)): lowered fasting plasma glucose levels
- fasting plasma glucose levels compared to placebo ([1]; second study, 600 mg (FIG. 11)): lowered fasting plasma glucose levels
- weight gain compared to placebo ([1]; second study, 600 mg (FIG. 18)): did not induce weight gain
- plasma glucose levels as judged by HbA1c ([1]; second study, 600 mg, all sites, placebo group demonstrated a comparable response (FIG. 12)): lowered plasma glucose levels as judged by HbA1c levels in the experimental group substantially from baseline
- plasma glucose levels as judged by HbA1c compared to placebo ([1]; second study, 600 mg, sites 60 and 70 removed (FIG. 13)): lowered plasma glucose levels as judged by HbA1c levels
- fasting plasma glucose levels compared to placebo ([1]; second study, 600 mg, sites 60 and 70 removed (FIG. 14)): lowered fasting plasma glucose levels
- ability to induce PPARγ expression (PPARγ): a few fold
- antagonism of the agonist activity of rosiglitazone (PPARγ): significantly antagonizing the agonist activity of rosiglitazone
- hsCRP levels ([2]; human patients, 14 days of treatment, dose dependent (FIG. 20)): lower hsCRP levels
- blood glucose levels ([2]; patients also receiving glyburide, 14 days of treatment (FIG. 19)): substantially lower blood glucose levels

Compound: O=C(O)C(Oc1cccc(C(F)(F)F)c1)c1ccc(Cl)cc1 (single isomer, unassigned; (-)) [(−)halofenic acid, (−) (3-trifluoromethylphenoxy) (4-chlorophenyl)acetic acid]
- plasma glucose concentrations vs vehicle (C57BL/6j ob/ob Mice [3]): significantly reduced plasma glucose concentrations at 6 hours
- inhibition of cytochrome P450 2C9 (cytochrome P450 2C9; listed as (−) enantiomer of halofenic acid): about twenty-fold less active

Compound: O=C(O)C(Oc1ccccc1-c1nc2ccccc2o1)c1ccc(Cl)cc1 (centres unmarked) [Compound I-1]
- Potency (C57BL/6j ob/ob Mice [4]): ++ (effective for glucose lowering at a dose of >25 mg/kg but <125 mg/kg)
- Insulin Level compared with vehicle (C57BL/6j ob/ob Mice [4]): Lower

Compound: O=C(O)C(Oc1ccccc1-c1nc2ccccc2o1)c1cccc(C(F)(F)F)c1 (centres unmarked) [Compound I-3]
- Potency (C57BL/6j ob/ob Mice [4]): + (effective for glucose lowering at the dose of ≧125 mg/kg)
- Insulin Level compared with vehicle (C57BL/6j ob/ob Mice [4]): Lower

Compound: O=C(O)C(Oc1ccc(C(F)(F)F)cc1-c1nc2ccccc2o1)c1cccc(C(F)(F)F)c1 (centres unmarked) [Compound I-89]
- Potency (C57BL/6j ob/ob Mice [4]): +++ (effective for glucose lowering at a dose of ≦25 mg/kg)
- Insulin Level compared with vehicle (C57BL/6j ob/ob Mice [4]): Lower

Compound: O=C(O)C(Oc1ccc(Cl)cc1-c1nc2ccccc2o1)c1ccc(Cl)cc1 (centres unmarked) [Compound I-190]
- Potency (C57BL/6j ob/ob Mice [4]): +++ (effective for glucose lowering at a dose of ≦25 mg/kg)
- Insulin Level compared with vehicle (C57BL/6j ob/ob Mice [4]): Lower

Compound: O=C(O)C(Oc1ccc(Cl)cc1-c1nc2ccccc2o1)c1cccc(C(F)(F)F)c1 (centres unmarked) [Compound I-191]
- Potency (C57BL/6j ob/ob Mice [4]): +++ (effective for glucose lowering at a dose of ≦25 mg/kg)
- Insulin Level compared with vehicle (C57BL/6j ob/ob Mice [4]): Lower

Compound: COc1ccc(C(Oc2ccc(Cl)cc2-c2nc3ccccc3o2)C(=O)O)cc1 (centres unmarked) [Compound I-193]
- Potency (C57BL/6j ob/ob Mice [4]): +++ (effective for glucose lowering at a dose of ≦25 mg/kg)
- Insulin Level compared with vehicle (C57BL/6j ob/ob Mice [4]): Lower

Compound: O=C(O)C(Oc1ccc(Cl)cc1-c1nc2ccccc2o1)c1cccc(Cl)c1 (centres unmarked) [Compound I-194]
- Potency (C57BL/6j ob/ob Mice [4]): +++ (effective for glucose lowering at a dose of ≦25 mg/kg)
- Insulin Level compared with vehicle (C57BL/6j ob/ob Mice [4]): Lower

Compound: O=C(O)C(Oc1ccc(C(F)(F)F)cc1-c1nc2ccccc2o1)c1ccccc1 (centres unmarked) [Compound I-369]
- Potency (C57BL/6j ob/ob Mice [4]): +++ (effective for glucose lowering at a dose of ≦25 mg/kg)
- Insulin Level compared with vehicle (C57BL/6j ob/ob Mice [4]): Lower

Compound: O=C(O)C(Oc1ccc(C(F)(F)F)cc1-c1nc2ccccc2o1)c1ccc(Cl)cc1 (centres unmarked) [Compound I-372]
- Potency (C57BL/6j ob/ob Mice [4]): +++ (effective for glucose lowering at a dose of ≦25 mg/kg)
- Insulin Level compared with vehicle (C57BL/6j ob/ob Mice [4]): Lower

Compound: CC(Oc1ccc(C(F)(F)F)cc1-c1nc2ccccc2o1)(C(=O)O)c1ccccc1 (centres unmarked) [Ia-365]
- Potency (C57BL/6j ob/ob Mice [4]): +++ (effective for glucose lowering at a dose of ≦25 mg/kg)
- Insulin Level compared with vehicle (C57BL/6j ob/ob Mice [4]): Lower

Compound: CC(Oc1ccc(C(F)(F)F)cc1-c1nc2ccccc2o1)(C(=O)O)c1ccccc1 (centres unmarked) [Ia-366]
- Potency (C57BL/6j ob/ob Mice [4]): +++ (effective for glucose lowering at a dose of ≦25 mg/kg)
